Laboratory results as given in patent publication US20100137344A1, “INDUCTION OF ANALGESIA IN NEUROPATHIC PAIN” (University Court of the University of Edinburgh, priority 2006, published 2010).

Key:
naïve rats = experiment: Intrathecal application in naïve rats, behavioural reflex testing (PWL, PWT); type: in vivo, rat; conditions: icilin 10 nmol, (−)-menthol 200 nmol, data not shown
Description: Thermal sensitivity was assessed by measuring paw withdrawal latency (PWL, s) in response to a noxious thermal stimulus (Hargreaves' thermal stimulator, Linton Instrumentation, Diss, UK) directed to the hindpaw mid-plantar glabrous surface. Mechanical sensitivity was recorded as the paw withdrawal threshold (PWT, mN/mm^2) to calibrated von Frey filaments (Stoelting, Ill., US), as previously described^[39]. Sensitivity to noxious cold was assessed by placing animals in a waterbath with an aluminium floor containing 1 cm deep 4° C. water and counting the time the paw was held suspended over a 20 s period.
The following drugs were applied intrathecally in a 50 μl volume of saline-based vehicle at 37° C.: icilin (2.5-200 μM in saline with 0.2% dimethylformamide, DMF), LY 341495 (100 μM in saline), UBP 1112 (200 μM in saline), 2R,4R-APDC ((2R, 4R)-4-aminopyrrolidine-2,4-dicarboxylate), 300 μM in saline), ACPT-III ((1R,3R,4S)-1-aminocyclopentane-1,3,4-tricarboxylic acid), 3 mM in saline), AP-4, ((L-(1)-2-amino-4-phosphonobutyric acid), 3 mM in saline), naloxone (0.5 mM in saline), NMDA (75 μM in saline) and ACPC (1-aminocyclopropanecarboxylic acid, 15 μM in saline) (Tocris Cookson, Bristol, UK), (−)-menthol (1R,2S,5R-(−)-menthol, 4 mM in saline), cinnamaldehyde (1.5 mM in saline) and Ruthenium Red (5 μM in saline) (Sigma-Aldrich Co. Ltd, UK) and allicin (0.5 mM in saline with 0.5% DMF) and diallyl disulphide (DADS, 1 mM in saline with 0.5% DMF) (LKT Laboratories Inc., St Paul, Minn., USA). Drugs were injected into the L5/6 intrathecal space under brief halothane anaesthesia, using a 25-gauge needle microsyringe (BD Biosciences, Oxford, UK), as described previously^[39] in animals that were at peak levels of behavioural sensitisation. Behavioural reflex testing commenced 15 min following injection to allow recovery from anaesthesia^[40,41,42] and continued every 5 min thereafter until readings returned to baseline levels (n=6 in each case). We, and others^[40,41,42] find complete recovery from anaesthetic by 15 minutes. All appropriate controls were carried out to eliminate the possibility of effects due to vehicle or to injection procedure.
The TRPM8 channel activators, icilin and (−)-menthol were tested in CCI and naïve animals. The effects of icilin were additionally assessed in animals with CFA-induced inflammation or with lysolecithin-induced demyelination. Icilin was also co-administered with the μ-opioid receptor antagonist naloxone, the Group II metabotropic glutamate receptor (mGluR) antagonist, LY 341495, or the Group III mGluR antagonist, UBP 1112. The effects of these antagonists alone as well as effects of the Group II mGluR agonist, 2R,4R-APDC and the Group III mGluR agonists, ACPT-III and AP-4, were assessed in CCI animals. The TRPA1 channel activator, cinnamaldehyde, alone and with icilin, was tested in CCI animals and in naïve animals. Further TRPA1 channel activators, allicin and diallyl disulphide were assessed in naïve animals. Both icilin and cinnamaldehyde effects in CCI animals were also investigated in the additional presence of Ruthenium Red.

dorsal horn neurons = experiment: Extracellular recordings of single spinal dorsal horn neurons in CCI animals (brush-evoked firing); type: in vivo, rat; conditions: icilin 200 μM topical
Description: Peripheral: Recordings of saphenous (sensory) nerve were made in naïve animals (n=7) to assess the effects of topical icilin on primary afferents. In addition, recordings were carried out on animals which had undergone TRPM8 antisense or mis-sense treatment beginning 4-5 days previously. Rats were anaesthetised (with 0.6 ml 25% urethane/100 g, i.p.) and the saphenous nerve was exposed and dissected from its associated vein and artery. Further dissection under liquid paraffin enabled identification of afferent preparations comprising a small number of fibres. The conduction velocity of single identified afferent fibres was determined using bipolar electrodes and the peripheral stimulus technique^[43]. Following isolation of preparations, icilin (200 μM in water with 0.2% DMF), (−)-menthol (4 mM in 25% ethanol) resiniferatoxin (1 mM in ethanol) or vehicle alone were applied to the hindlimb receptive fields and neuronal responses recorded using the Chart programme (version 3.6). Central: Recordings of spinal dorsal horn neurons were made in CCI animals, as described previously^[39]. Following halothane induction, the jugular vein and trachea were canulated and intravenous anaesthetic delivered: α-chloralose ([…], Fisher) and urethane ([…], Sigma), with small supplementary doses of α-chloralose as required throughout the experiment. Core body temperature was maintained at 37-38° C. by means of a thermostatically controlled heated blanket. The animal was placed in a stereotaxic frame, and the thoracolumbar spinal column was supported using three pairs of swan-necked clamps. A laminectomy was performed at L2-L5, and agar (2% in saline at 37° C.) was delivered over exposed cord to increase mechanical stability. Above the recording region the agar and spinal cord dura were removed and liquid paraffin poured into the pool. Extracellular recordings were made from single multireceptive neurons in laminae I-IV through the centre barrel of a seven-barrelled glass microelectrode filled with 4M NaCl (tip-diameter […], DC resistance 5-8 MΩ). The receptive fields of hair-follicle innervated neurons on the distal hindlimb were identified by an innocuous brush stimulus^[39]. Icilin (200 μM in water with 0.2% DMF) was applied peripherally to the receptive field of individual recorded neurons, and the effect on neuronal response to a rotating brush was recorded and analysed using Spike2 programme (Version 3.2, CED). The Group III mGluR antagonist UBP 1112 (20 mM in water), pH 8.5, and control 1M NaCl, pH 8.5 were ionophoresed from the side barrels of the electrode using currents of between 20 nA and 80 nA (Neurophore BH2 ionophoresis system, Medical Systems, Great Neck, N.Y.) to measure effects on neuronal response to icilin.

[1] = system: SNL model of neuropathic pain; experiment: SNL spinal nerve ligation model, Hargreaves' test, topical icilin; type: in vivo; conditions: icilin 200 μM topical
Description: The SNL model of neuropathic pain was set up according to Kim and Chung 1992 (Pain 50: 355-363). The Hargreaves' test for thermal hyperalgesia was carried out as described above and icilin (200 μM) was applied topically to the ipsilateral (⋄) and contralateral (▪) paw. Values are shown as means±SEM. † Indicates statistically significant reversal of sensitisation ipsilateral to nerve injury (see FIG. 1). No significant drug effects were seen on reflex withdrawal responses of the contralateral limb.

[2] = system: CCI model of neuropathic pain; experiment: Cold allodynia in CCI model, Peltier controlled footplate; type: in vivo, rat; conditions: icilin 200 μM topical
Description: In the CCI model of neuropathic pain, cold allodynia was assessed by scoring the number of paw flick-associated paw withdrawals from a Peltier controlled footplate that was reduced in temperature from control (30° C.) to mild cooling (20° C.). Icilin (200 μM) was applied topically (as in FIG. 1). Values are shown as means±SEM, ipsilateral (⋄) to nerve injury. † Indicates statistically significant reversal of cool allodynia.

| SMILES | effect on reflex responses in naïve animals (naïve rats) | brush-induced responses of contralateral neurons (dorsal horn neurons; contralateral, n=6) | brush-induced responses (dorsal horn neurons; ipsilateral to CCI, 8 neurons out of 12 affected) | analgesia, thermal hyperalgesia (Hargreaves' test) [1] | analgesia against cold allodynia (paw withdrawals, footplate 30° C. to 20° C.) [2] |
| --- | --- | --- | --- | --- | --- |
| CC(C)[C@@H]1CC[C@@H](C)C[C@H]1O [(−)-menthol, 1R,2S,5R-(−)-menthol] | without effect |  |  |  |  |
| O=C1NC(c2cccc([N+](=O)[O-])c2)=CCN1c1ccccc1O [icilin, 1-(2′-hydroxyphenyl)-4-(3″-nitrophenyl)-1,2,3,6-tetrahydropyrimidin-2-one] | without effect | 111.9±8.9 % of control | 37.4±5.5% | causes analgesia | provides analgesia against the cold allodynia |
